We go through ten compounds from PubChem BioAssay (NCI).

Holding throughout (experiment): NCI-60 cell line screen, 48 h
The subject of experiment [1] is SF-539 CNS.
The subject of experiment [2] is MDA-MB-231 breast.
In experiment [3] the test system is NCI/ADR-RES ovarian.
Experiment [4] deals with A498 renal.
In experiment [5] the test system is SW-620 colon.
In experiment [6] the test system is U251 CNS.
For experiment [7], the system named is UACC-62 melanoma.
The subject of experiment [8] is K-562 leukemia.

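Each compound was tested at five concentrations against cells in 96-well plates for 48 hours. GI50 marks 50% less growth. Definition used: TGI = concentration required for complete inhibition of growth.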

As to `CCCCCCc1cc2cc(-c3csc(/C=C/c4ccccc4)n3)c(=O)oc2cc1O`, the GI50 in experiment [1] is 10 µM; in experiment [2] it was 8.82 µM; in experiment [3] it was 4.53 µM; in experiment [4] it was 14.4 µM; in experiment [5], 5.6 µM; in experiment [6], 2.91 µM. For the same compound, the GI50 in experiment [7] was 13.9 µM; in experiment [8], 6.13 µM. The TGI was determined as 23 µM in experiment [1]; 31.1 µM in experiment [2]; 17.7 µM in experiment [3]; 30.5 µM in experiment [4]; 20.7 µM in experiment [5]; 10.5 µM in experiment [6]. For the same compound, the TGI in experiment [7] was 28.1 µM; in experiment [8], 80.3 µM.
For `FC(F)(F)c1ccc(-c2ncc(-c3ccc(C(F)(F)F)cc3)c(NCc3cc(C(F)(F)F)cc(C(F)(F)F)c3)n2)cc1`, the GI50 in experiment [1] was 7.71 µM; in experiment [2], 3.81 µM; in experiment [3], 4.62 µM; in experiment [4], 2.31 µM; in experiment [5], 3.95 µM; in experiment [6], 3.57 µM. Further, the GI50 in experiment [7] was 3.77 µM; in experiment [8] it was 3.97 µM. Moreover, the TGI in experiment [1] is more than 100 µM; in experiment [2] it was 14.8 µM; in experiment [3], more than 100 µM; in experiment [4] it was 8.75 µM; in experiment [5] it was more than 100 µM; in experiment [6] it was more than 100 µM. The TGI in experiment [7] and in experiment [8] was more than 100 µM throughout.
On to `O=C1c2cccnc2C(=O)c2c1c(C(=O)OCCc1ccccn1)c1ccccn21`, for which the GI50 was 0.0334 µM in experiment [1]; 1.48 µM in experiment [2]; 0.0252 µM in experiment [3]; less than 0.0378 µM in experiment [4]; less than 0.01 µM in experiment [5]; 0.0216 µM in experiment [6]. The GI50 in experiment [7] is 0.0202 µM; in experiment [8], 0.0612 µM. The TGI was 0.432 µM in experiment [1]; more than 100 µM in experiment [2]; 1.15 µM in experiment [3]; 0.824 µM in experiment [4]; more than 44.8 µM in experiment [5]; 0.261 µM in experiment [6]. Moreover, the TGI in experiment [7] is 0.219 µM; in experiment [8], more than 100 µM.
For the compound `c1ccc(-c2cn(-c3ccccc3)c(-c3ccccc3)n2)cc1`, the GI50 was 14.2 µM in experiment [1]; 18.4 µM in experiment [2]; 19.6 µM in experiment [3]; 15.4 µM in experiment [4]; 1.95 µM in experiment [5]; 4.08 µM in experiment [6]. The GI50 in experiment [7] is 15.3 µM; in experiment [8], 3.54 µM. In addition, the TGI in experiment [1] came out at 27.9 µM; in experiment [2] it was 36.5 µM; in experiment [3], 44.9 µM; in experiment [4] it was 28.8 µM; in experiment [5], 3.83 µM; in experiment [6], 15.9 µM. Moreover, the TGI in experiment [7] is 29.8 µM; in experiment [8], 18.7 µM.
With `C/C(=N/NC(=S)N1CC2CCC(CC2)C1)c1cnccn1`, the TGI stood at 15.6 µM in experiment [1]; 16.8 µM in experiment [2]; 0.054 µM in experiment [3]; 14.2 µM in experiment [4]; 12.4 µM in experiment [5]; 4.28 µM in experiment [6]. Also, the TGI in experiment [7] is 6.08 µM; in experiment [8], 0.472 µM.
With `O=C(NS(=O)(=O)c1ccc(NC[C@H]2COCCO2)c([N+](=O)[O-])c1)c1ccc(N2CCN(CC3=C(c4ccc(Cl)cc4)CC4(CCC4)CC3)CC2)cc1Oc1cnc2[nH]ccc2c1`, the GI50 in experiment [1] is 1.88 µM; in experiment [2], 1.62 µM; in experiment [3] it was 4.88 µM; in experiment [4], 2.36 µM; in experiment [5], 2.47 µM; in experiment [6], 2.19 µM. Also, the GI50 in experiment [7] was 1.51 µM; in experiment [8], 3.04 µM. Further, the TGI came to 4.03 µM in experiment [1]; 3.21 µM in experiment [2]; 24.9 µM in experiment [3]; 5.74 µM in experiment [4]; 6.6 µM in experiment [5]; 5.38 µM in experiment [6]. Besides, the TGI in experiment [7] is 3 µM; in experiment [8] it was more than 100 µM.
In the case of `CC1(C)OC2C(CO)OC(n3ccc(N)nc3=O)C2O1` (stereo not drawn), the TGI in experiment [1], in experiment [2], in experiment [3], in experiment [4], in experiment [5] and in experiment [6] was more than 100 µM each time. Further, the TGI in experiment [7] and in experiment [8] was more than 100 µM each time.
Consider `CCC(C)CC(C)C(=O)c1c(O)ccn(O)c1=O` (stereo not drawn), for which the GI50 in experiment [1] was 1.04 µM; in experiment [2], 1.04 µM; in experiment [3] it was 0.395 µM; in experiment [5] it was 0.607 µM; in experiment [6], 2.14 µM; in experiment [7], 2.27 µM. In addition, the GI50 in experiment [8] was 0.631 µM. In addition, the TGI in experiment [1] was 8.08 µM; in experiment [2] it was more than 100 µM; in experiment [3] it was 5.15 µM; in experiment [5] it was more than 100 µM; in experiment [6], more than 100 µM; in experiment [7], 6.74 µM. Moreover, the TGI in experiment [8] is more than 100 µM.
As to `NS(=O)(=O)c1ccc(N=C2C(=O)Nc3ccccc32)cc1`, the TGI in experiment [2], in experiment [3], in experiment [4], in experiment [5], in experiment [6] and in experiment [7] was more than 100 µM throughout. Also, the TGI in experiment [8] was more than 100 µM.
With `O=C1NC(=O)C(c2ccccc2)=C1Nc1ccccc1`, the GI50 is more than 25 µM in experiment [1]; more than 25 µM in experiment [2]; more than 25 µM in experiment [3]; more than 22.1 µM in experiment [4]; more than 25 µM in experiment [5]; more than 25 µM in experiment [6]. In addition, the GI50 in experiment [7] and in experiment [8] was more than 25 µM throughout. In addition, the TGI in experiment [1], in experiment [2], in experiment [3], in experiment [4], in experiment [5] and in experiment [6] was more than 25 µM each time. For the same compound, the TGI in experiment [7] and in experiment [8] was more than 25 µM throughout.
